In ChEMBL document CHEMBL1201862, “PubChem BioAssay data set” (2004):
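The compound was tested at five concentrations on cells cultured in 96-well plates, with a 48-hour exposure period. GI50: concentration for 50% inhibition of growth.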 The source made the active and inactive calls. Cut-off read from the data, not from the text of the source: active = GI50 up to about 1.1 µM and inactive = higher.

Legend:
Assay in all cases: NCI anticancer screen, dose series, 48 h
[1] = system: NCI-H23
[2] = system: SW-620
[3] = system: OVCAR-3
[4] = system: SN12C
[5] = system: MOLT-4
[6] = system: NCI-H522
[7] = system: UACC-257
[8] = system: SNB-78
[9] = system: RPMI-8226
[10] = system: SR
[11] = system: EKVX
[12] = system: U-251
[13] = system: UACC-62
[14] = system: A549
[15] = system: HOP-92
[16] = system: COLO 205
[17] = system: CAKI-1

Measured: GI50

CN(C)/C=C/C(=O)c1cccc(C(=O)/C=C/N(C)C)n1
inactive: [1] > 100 µM | [2] > 100 µM | [3] > 100 µM | [4] > 100 µM | [5] > 100 µM | [6] > 100 µM | [7] > 100 µM | [8] > 100 µM | [9] > 100 µM | [10] > 100 µM | [11] > 100 µM | [12] > 100 µM | [13] > 100 µM | [14] > 100 µM | [15] > 100 µM | [16] > 100 µM

CCCOP(=S)(N1CC1)N1CC1
inactive: [1] > 100 µM | [2] > 100 µM | [3] > 100 µM | [4] > 100 µM | [5] > 100 µM | [6] > 100 µM | [7] 24.8 µM | [8] > 100 µM | [9] > 100 µM | [10] > 100 µM | [11] > 100 µM | [12] > 100 µM | [17] > 100 µM | [13] > 100 µM | [14] > 100 µM | [15] > 100 µM | [16] > 100 µM

ClC/C=C/COC1CCCCO1 (stereo unspecified)
inactive: [1] > 100 µM | [2] > 100 µM | [3] > 100 µM | [4] > 100 µM | [5] 29 µM | [6] 2.12 µM | [7] 45.7 µM | [8] > 100 µM | [9] 54.2 µM | [10] 18.2 µM | [11] > 100 µM | [12] 65.9 µM | [17] 89.9 µM | [13] 84.1 µM | [14] > 100 µM | [15] > 100 µM | [16] 94.6 µM

O=C1c2c(c3c4ccccc4n(CC4CO4)c3c3[nH]c4ccccc4c23)C(=O)N1Cc1ccccc1 (stereo unspecified)
inactive: [1] > 100 µM | [2] 77.6 µM | [3] > 100 µM | [4] > 100 µM | [5] 38.6 µM | [6] 25.4 µM | [7] > 100 µM | [8] > 100 µM | [9] > 100 µM | [10] > 100 µM | [12] > 100 µM | [17] > 100 µM | [13] > 100 µM | [14] > 100 µM | [15] > 100 µM

CC1=CC=C2C(C)(C)CC[C@@H]3OC(=O)[C@H]1[C@]23C
inactive: [1] > 100 µM | [2] > 100 µM | [3] > 100 µM | [4] > 100 µM | [5] > 100 µM | [6] > 100 µM | [7] > 100 µM | [8] 37.1 µM | [10] > 100 µM | [11] > 100 µM | [12] > 100 µM | [17] > 100 µM | [13] > 100 µM | [14] > 100 µM | [15] > 100 µM | [16] > 100 µM

O=C1C2C=CC(n3[nH]c(=O)n(Cc4ccccc4)c3=O)CC2C(=O)N1c1cccc(Cl)c1 (stereo unspecified)
inactive: [1] > 100 µM | [2] > 100 µM | [3] > 100 µM | [4] > 100 µM | [6] > 100 µM | [7] > 100 µM | [8] > 100 µM | [10] > 100 µM | [11] > 100 µM | [12] > 100 µM | [17] > 100 µM | [13] > 100 µM | [14] > 100 µM | [15] > 100 µM | [16] > 100 µM

COc1ccc(/C=C/c2nnc(S)[nH]2)cc1OC
inactive: [1] > 100 µM | [2] > 100 µM | [3] > 100 µM | [4] > 100 µM | [5] > 100 µM | [7] > 100 µM | [8] > 100 µM | [9] > 100 µM | [10] > 100 µM | [12] > 100 µM | [17] > 100 µM | [13] > 100 µM | [14] > 100 µM | [15] > 100 µM

O=c1c2ccccc2nc(-c2cccc(Cl)c2)n1NCC1(O)OCC(O)C(O)C1O (stereo unspecified)
inactive: [1] > 100 µM | [2] > 100 µM | [3] > 100 µM | [4] > 100 µM | [5] 48.2 µM | [6] 37.8 µM | [7] > 100 µM | [8] > 100 µM | [9] 41.1 µM | [10] 43.9 µM | [11] > 100 µM | [12] > 100 µM | [17] > 100 µM | [13] > 100 µM | [14] > 100 µM | [16] > 100 µM

CCOC(=O)c1[nH]c(COC(C)=O)c(CCCOC(C)=O)c1CCCOC(C)=O
inactive: [1] > 100 µM | [2] > 100 µM | [3] > 100 µM | [4] > 100 µM | [5] > 100 µM | [6] 23 µM | [7] > 100 µM | [8] > 100 µM | [10] > 100 µM | [11] > 100 µM | [12] > 100 µM | [17] > 100 µM | [14] > 100 µM | [15] > 100 µM | [16] > 100 µM
